Laboratory results published in PubChem BioAssay (NCI).
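Cells were grown in 96-well plates and exposed to each compound for 48 hours at five concentrations; endpoints were interpolated linearly between bracketing concentrations, or set to the highest concentration if not reached. TGI marks complete inhibition of growth.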

Experiments:
Test in all cases: NCI-60 cell line screen, 48 h
A549 NSCLC = system: A549 NSCLC
COLO 205 colon = system: COLO 205 colon
HOP-62 NSCLC = system: HOP-62 NSCLC
KM12 colon = system: KM12 colon
SK-MEL-5 melanoma = system: SK-MEL-5 melanoma
SNB-75 CNS = system: SNB-75 CNS
TK-10 renal = system: TK-10 renal
UACC-62 melanoma = system: UACC-62 melanoma
DU-145 prostate = system: DU-145 prostate

Row | Structure (SMILES) | TGI (A549 NSCLC) | TGI (COLO 205 colon) | TGI (HOP-62 NSCLC) | TGI (KM12 colon) | TGI (SK-MEL-5 melanoma) | TGI (SNB-75 CNS) | TGI (TK-10 renal) | TGI (UACC-62 melanoma) | TGI (DU-145 prostate)
1 | Cc1ccc(Sc2cc([N+](=O)[O-])cc(Sc3ccc(C)cc3)c2Sc2ccc(C)cc2)cc1 | > 100 µM | > 100 µM | > 100 µM | > 100 µM | > 100 µM | > 100 µM | > 100 µM | > 100 µM | 
2 | COc1ccc(/C=C\c2cc(OC)c(OC(C)=O)c(OC)c2)cc1 | 78 µM | > 100 µM | 85.6 µM | 61.2 µM | 20.5 µM | 15 µM |  | 33.5 µM | 
3 | O=C1OC(/C=C/c2ccccc2)C(=O)C1=O (stereo not given) | > 100 µM | > 100 µM | > 100 µM | > 100 µM |  | > 100 µM | > 100 µM | > 100 µM | 
4 | O=C(c1ccccc1)C(c1ccccc1)C1(O)C(=O)Nc2ccc(Br)cc21 (stereo not given) | > 100 µM | > 100 µM | > 100 µM | > 100 µM |  | > 100 µM | > 100 µM | 39.2 µM | 
5 | COc1cccc(/C=N/[N-]C(N)=O)c1[O-].[Cu+2].c1ccncc1 | 34.9 µM | 32.2 µM | 52.1 µM | 35.9 µM | 37.2 µM | 33.4 µM |  | 41.1 µM | 
6 | CCn1cc(C(=O)O)c(=O)c2cc(F)c(N3CCNCC3)nc21 | > 100 µM | > 100 µM | > 100 µM | > 100 µM | > 100 µM | > 100 µM | > 100 µM | > 100 µM | 
7 | CC(=O)c1ccc(-c2ccc(C(C)=O)s2)s1 | > 100 µM | > 100 µM | > 100 µM | > 100 µM | > 100 µM | > 100 µM | > 100 µM | > 100 µM | 
8 | O=C1C2Cc3ccccc3CN2C(=O)N1CCN1CCOCC1 (stereo not given) | > 100 µM | > 100 µM | > 100 µM | > 100 µM | > 100 µM |  | > 100 µM | > 100 µM | 
9 | COc1ccc2c(c1)[n+](=O)c(C(=O)C/C(=N\NC(=O)C[N+](C)(C)C)C(=O)Nc1cc(Cl)ccc1Cl)c(C)n2O | > 100 µM | > 100 µM | > 100 µM | > 100 µM | > 100 µM | > 100 µM | > 100 µM | > 100 µM | 
10 | Cn1c(=O)ccc2cc(C(=O)c3ccccc3)ccc21 | > 100 µM | > 100 µM | > 100 µM | > 100 µM | 55.7 µM | 54.3 µM | > 100 µM | 50.5 µM | 
11 | C=C1[C@@H]2CCC(C)(C)[C@H]1CCC(=O)[C@@H]2C(=O)OC | > 100 µM | > 100 µM | > 100 µM |  | > 100 µM |  | > 100 µM | > 100 µM | 
12 | CCN(CC)[C@@H]1c2cc3c(cc2C(c2cc(OC)c(O)c(OC)c2)C2C(=O)CO[C@@H]21)OCO3 (stereo not given in full) | > 100 µM | > 100 µM | > 100 µM | > 100 µM | > 100 µM | > 100 µM | > 100 µM | > 100 µM | 
13 | CCCCCCCCCCCCCCCc1nc(SCC(=O)O)n[nH]1 | > 100 µM |  | > 100 µM | > 100 µM | > 100 µM |  | > 100 µM | > 100 µM | 
14 | C[C@]12CC[C@H](O)CC1CCC[C@@H]2O (stereo not given in full) | > 100 µM | > 100 µM | > 100 µM | > 100 µM | > 100 µM | > 100 µM | > 100 µM | > 100 µM | 
15 | CC1(C)OC(=O)C(c2ccsc2)C(=O)O1 | > 100 µM | > 100 µM | > 100 µM | > 100 µM | > 100 µM | > 100 µM | > 100 µM | > 100 µM | 
16 | O=c1c2ccc(Br)cc2nc(-c2ccccc2)n1NC1OC(CO)C(O)C(O)C1O (stereo not given) | > 100 µM | > 100 µM | > 100 µM | > 100 µM | > 100 µM | > 100 µM | > 100 µM | > 100 µM | 
17 | OC1OC2COC(c3ccccc3)OC2C(O)C1O (stereo not given) | > 100 µM | > 100 µM | > 100 µM | > 100 µM | > 100 µM |  | > 100 µM | > 100 µM | 
18 | Fc1cccc(C2SCc3nc4ccccc4n32)c1 (stereo not given) | > 100 µM | > 100 µM |  | > 100 µM | 29.4 µM | > 100 µM | > 10 µM | > 100 µM | 
19 | NC1=C(O)/C(=N/NS(=O)(=O)c2ccccc2)C(c2cccc(Cl)c2)O1 (stereo not given) | > 100 µM | 30 µM | > 100 µM | > 100 µM | > 100 µM | > 80.4 µM | > 95.8 µM | 66.7 µM | > 100 µM
20 | Cc1cc2c(C=O)[nH]nc2c(C#N)c1C | > 100 µM | > 100 µM | > 100 µM | > 100 µM | > 100 µM | 40.9 µM | > 100 µM | > 100 µM | 
